From patent US10800778B2 (Entasis Therapeutics Limited, priority 2016, dated 2020)
Counter-ions that a name gives are not always drawn.

Experiments:
[1] = test system: C. freundii AmpC, TEM-1, CMY65; test: MIC, CLSI broth microdilution, beta-lactam with or without BLI; assay type: cell-based; details: for MIC of beta-lactam alone / MIC: no BLI; for MIC: Citrobacter freundii, read-out: MIC of beta-lactam alone
Procedure: (§1) The minimal inhibitory concentration (MIC) values against each organism and drug combination were determined using the Clinical and Laboratory Standards Institute guidelines (CLSI) broth microdilution methodology (CLSI M07-A10). The recommended quality control (QC) bacterial strains E. coli ATCC 25922, E. coli ATCC 35218 and Klebsiella pneumoniae ATCC 700603 were incorporated into each test according to the CLSI guidelines to assure that there was no variation between test dates (CLSI M100-S25). The MICs of these QC strains were within QC range on all test occasions. Drug containing plates were made using the master plate method. A cefpodoxime solution was prepared to 20× concentration and 2-fold serial dilutions were made in cation adjusted Mueller-Hinton Broth. Equal volumes of 20× examplar compounds at a fixed concentration were added to the master plate. 10 uL was stamped into daughter plates using a Tecan EVO robot. Organism suspensions were adjusted to a 0.5 McFarland standard and further diluted to yield a final inoculum between 3×10^5 and 7×10^5 colony-forming units (CFU)/mL. Bacterial inocula were made in sterile, cation adjusted Mueller-Hinton Broth (Beckton Dickinson). An inoculum volume of 1.1× concentration of 90 uL was added to wells (using a Tecan EVO robot). All inoculated microdilution plates were incubated in ambient air at 35° C. for 18-24 hours.
(§2) Following the procedure from Example 103, MICs were determined for several beta-lactams in presence of a fixed concentration (4 μg/mL) of exemplar compounds (Table 3) against 3 Enterobacteriaceae strains.

[2] = test system: Klebsiella pneumoniae SHV-18, OXA-2, OKP-6 (ATCC 700603); test: as above; assay type: cell-based; details: for MIC of beta-lactam alone / MIC: no BLI; for MIC of beta-lactam alone / MIC of cefpodoxime in presence of BLI / MIC: K. pneumoniae SHV-18, OXA-2, OKP-6 (ATCC 700603); for MIC of cefpodoxime in presence of BLI: BLI at fixed 4 μg/mL; for MIC: Klebsiella pneumoniae, ATCC700603, read-out: MIC of beta-lactam alone
Procedure: as §1, §2

E. coli WT (ATCC 25922) = test: as above; assay type: cell-based; details: for MIC of beta-lactam alone: no BLI; for MIC: Escherichia coli, ATCC25922, no BLI, read-out: MIC of beta-lactam alone
Procedure: as §1, §2

[3] = test system: E. coli ARC2687 (AmpC, CTX-M-14); test: Mouse neutropenic thigh infection model, oral efficacy of cefpodoxime proxetil with Example 35; assay type: in vivo
Procedure: The oral in vivo efficacy of Example 35 was evaluated in combination with cefpodoxime proxetil in a mouse neutropenic thigh infection model versus a relevant clinical isolate. […] CD-1 mice (Charles River, Wilmington US) were housed in shoebox type cages with contact bedding and acclimated to the facility for a minimum of 2 days prior to use. The animal room was maintained at 70° F., with 50+/−10% relative humidity and a 12-hour light/dark cycle. The study was conducted using an IACUC-approved protocol in accordance with Title 9 of the Code of Federal Regulations. Animals were rendered neutropenic with two intraperitoneal doses of cyclophosphamide (150 mg/kg—4 days and 100 mg/kg—1 day prior to infection (Gerber et al. (1983) J Infect Dis 147(5); 910-917)). Animals were infected via an intramuscular challenge of ˜1×10^6 CFU administered within 100 μL of 0.9% saline. The inoculum was prepared from a 25 mL overnight culture of E. coli ARC 2687 in tryptic soy broth media. Following an OD600 determination, the inoculum was diluted in 0.9% saline to a concentration of […] prior to inoculation into the left and right thigh. Oral therapy with cefpodoxime proxetil alone and in combination with Example 35 was initiated 2 hours post bacterial challenge. Doses were suspended in 0.5% HPMC/0.1% Tween 80 and administered by oral gavage at a dose volume of 10 mL/kg. A terminal endpoint was obtained at 24 hr to determine bacterial counts in thigh tissue (CFU/gm). Animals were ethically euthanized, thighs were asceptically removed, weighed and homogenized in 1 mL of saline. Bacterial burden enumeration of tissue homogenate was performed by serial dilution on tryptic soy agar plates which were incubated overnight at 37° C. prior to colony (CFU) counting. The lower limit of detection was ˜2.6 log10 CFU/gm of tissue.

[4] = Rat PK, intravenous and oral; assay type: in vivo, Sprague-Dawley rats; details: Sprague-Dawley, plasma, 10 mg/kg; rat, PO; analyte = compound administered (sulfate-derived comparator)
Procedure: Intravenous rat pharmacokinetics of exemplar compounds were determined in jugular vein cannulated Sprague-Dawley rats (n=3) (Harlan Laboratories, Indianapolis, Ind.) at a dose of 10 mg/kg. Compounds were dissolved and administered intravenously in 0.9% saline, pH 6.5 at a dose volume of 2 mL/kg. […] Oral pharmacokinetic studies were conducted with exemplar compounds at 10 mg/kg equivalents of carboxylic acids. Doses were dissolved and administered orally in 25:75 PEG400: water for injection, pH 4.5 at a dose volume of 10 mL/kg. […] Plasma samples were stored at −80° C. prior to bioanalysis.
Plasma samples were thawed on ice prior to processing. Samples (30 μL) were diluted and proteins precipitated with 180 μL of acetonitrile containing 0.1% formic acid and 250 ng/mL of carbutamide (N1-(butylcarbanoyl)-sulfanilamide, Sigma-Aldrich Catalog # S385433) as an internal standard. Samples were vortexed for 30 seconds, centrifuged at 3400 g for 10 minutes and the supernatant transferred to injection vials.
LC/MS/MS analysis was completed on an AB Sciex QTrap 6500 mass spectrometer in positive ionization mode, coupled to a Schimadzu Nexera LC system. A Waters Atlantis T3 (3 μm, 3.0×50 mm) column was used for chromatographic separation. Injection volume was […] The mobile phase consisted 0.1% formic acid in water (A) and 0.1% formic acid in acetonitrile (B), with a gradient of 2-98% B:A over two minutes.
Plasma concentration vs. time profiles following intravenous (IV) administration and oral (PO) administration of exemplar compounds were analyzed by non-compartment analysis using WinNonLin 6.4.

[5] = target: OXA-48 (Class D beta-lactamase) (Klebsiella pneumoniae, UniProt Q6XEC0); test: Inhibition of beta-lactamase enzymes (nitrocefin hydrolysis), OXA-48; assay type: biochemical; details: read-out: Class D OXA-48 60 min IC50, nitrocefin 100 μM
Procedure: (§3) A buffer consisting of 0.1 M sodium phosphate (pH 7.0), 10 mM NaHCO3, and 0.005% Triton X-100 was used for all enzymes. The chromogenic substrate nitrocefin (SynGene, Bangalore, India) was used at 100 μM. Enzyme activity was monitored by the 490 nm absorbance increase upon nitrocefin hydrolysis. Assays were performed in clear polystyrene 384-well plates (Greiner Bio-One, Monroe, N.C.). Absorbance was measured for 1 hour at 30-s intervals using a Spectramax absorbance plate reader (Molecular Devices, Sunnyvale, Calif.). Measurement of beta-lactamase inhibition by INHIBITOR employed serial 3-fold dilutions of the inhibitor in assay buffer, ranging from 100 μM to 62.7 pM. A background absorbance progress curve for a control lacking enzyme and inhibitor was subtracted from each progress curve.
(§4) The complete set of progress curves for one enzyme with all inhibitor concentrations was subjected to numerical integration with the program Kintek Global Kinetic Explorer (Kintek Corp, Snowshoe Pa.) to obtain a best-fit to the mechanism shown in Scheme 10.
(§5) where E, S, ES, P, I, and EI are the concentrations of the enzyme, nitrocefin, the enzyme-nitrocefin complex, the nitrocefin hydrolysis product, INHIBITOR, and the enzyme-INHIBITOR complex respectively. […] The values of k+2, k+3, and k−3 were fit. Concentration series offsets of the absorbance measurements were used to correct for slight absorbance baseline differences between wells. The parameter k+3 is equivalent to the second order rate constant kinact/Ki. In some cases, the inhibition was in rapid equilibrium on the experimental time scale, so that only the ratio k−3/k+3=Ki could be determined. Although k−3 represents reversal of inhibitor binding in Scheme 10, hydrolysis of the enzyme-inhibitor complex could not be excluded based on kinetic measurements.
(§6) Best-fit absorbance values from the above procedure at each time point for each compound concentration were exported to Excel.
(§7) where A is the best-fit absorbance without inhibitor and Ainhib is the best-fit absorbance in the presence of the inhibitor.
(§8) where [I] is the inhibitor concentration and n is the Hill coefficient. The Excel add-in XLfit (ID Business Solutions) was used for nonlinear regression.

[6] = target: TEM-1 (Class A beta-lactamase) (Escherichia coli, UniProt P62593); test: Inhibition of beta-lactamase enzymes (nitrocefin hydrolysis), TEM-1; assay type: biochemical; details: read-out: Class A TEM-1 60 min IC50, nitrocefin 100 μM
Procedure: as §3, §4, §5, §6, §7, §8

[7] = BLI at fixed 4 μg/ml, K. pneumoniae ATCC 700603

OXA-48 (Class D beta-lactamase), sequence (Q6XEC0 whole entry, looked up, species assumed): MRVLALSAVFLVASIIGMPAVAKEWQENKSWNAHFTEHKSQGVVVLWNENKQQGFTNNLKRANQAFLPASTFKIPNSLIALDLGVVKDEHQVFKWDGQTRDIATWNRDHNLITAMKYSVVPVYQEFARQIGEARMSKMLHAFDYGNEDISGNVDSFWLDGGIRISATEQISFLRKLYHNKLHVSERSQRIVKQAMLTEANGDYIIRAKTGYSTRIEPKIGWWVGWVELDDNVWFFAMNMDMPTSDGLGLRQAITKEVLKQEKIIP
TEM-1 (Class A beta-lactamase), sequence (P62593 whole entry, looked up, species assumed): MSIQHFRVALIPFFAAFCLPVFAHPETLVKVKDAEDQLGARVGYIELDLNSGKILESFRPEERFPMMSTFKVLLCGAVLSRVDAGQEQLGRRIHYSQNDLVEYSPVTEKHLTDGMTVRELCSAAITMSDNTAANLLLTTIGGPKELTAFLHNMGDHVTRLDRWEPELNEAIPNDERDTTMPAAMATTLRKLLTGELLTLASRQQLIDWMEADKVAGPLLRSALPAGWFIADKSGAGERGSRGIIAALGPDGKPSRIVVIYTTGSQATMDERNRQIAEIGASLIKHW

SMILES: C=CC1=C(C(=O)O)N2C(=O)[C@@H](NC(=O)/C(=N\OCC(=O)O)c3csc(N)n3)[C@H]2SC1 [Cefixime, cefixime, reference compound]
- MIC of beta-lactam alone [1]: >64 µg/mL
- MIC of beta-lactam alone [2]: 8 µg/mL
- MIC of beta-lactam alone (E. coli WT (ATCC 25922)): 0.5 µg/mL

SMILES: COCC1=C(C(=O)OC(C)OC(=O)OC(C)C)N2C(=O)[C@@H](NC(=O)/C(=N\OC)c3csc(N)n3)[C@H]2SC1 (stereo partly shown) [Cefpodoxime proxetil, cefpodoxime proxetil, reference compound]
- log10CFU/gm thigh ([3]; cefpodoxime proxetil alone 50 mg/kg PO/q6h, mouse neutropenic thigh, E. coli ARC2687): 10.24 log10CFU/gm thigh
- CFU Change from 26 hr ([3]; cefpodoxime proxetil alone 50 mg/kg PO/q6h, relative to 26 hr growth control): −0.62 log10 CFU/gm
- CFU Change from 2 hr ([3]; cefpodoxime proxetil alone 50 mg/kg PO/q6h, relative to initiation of therapy): +3.97 log10 CFU/gm
- growth of bacterial burden in thighs after 24 hours of therapy ([3]; cefpodoxime proxetil alone at 50 mg/kg q6h, oral, neutropenic CD-1 mice): greater than 3 log10 CFU/gm

SMILES: CO/N=C(\C(=O)N[C@@H]1C(=O)N2C(C(=O)O)=C(COC(N)=O)CS[C@H]12)c1ccco1 [Cefuroxime, cefuroxime, reference compound]
- MIC of beta-lactam alone [1]: >64 µg/mL
- MIC of beta-lactam alone [2]: 32 µg/mL
- MIC of beta-lactam alone (E. coli WT (ATCC 25922)): 4 µg/mL

SMILES: CC1=C[C@@H]2CN(C(=O)N2OS(=O)(=O)O)[C@@H]1C(N)=O [ETX2514, reference compound]
- AUC [4]: 0.44 µM·h

SMILES: CC1=C[C@@H]2CN(C(=O)N2O[C@@H](F)C(=O)O)[C@@H]1C(=O)NCCNS(N)(=O)=O [Example 75, (2S)-2-fluoro-2-[[(2S,5R)-3-methyl-7-oxo-2-[2-(sulfamoylamino)ethyl-carbamoyl]-1,6-diazabicyclo[3.2.1]oct-3-en-6-yl]oxy]acetic acid lithium salt]
- MIC of cefpodoxime in presence of BLI [2]: 0.125 µg/mL
- IC50 [5]: 420 nM
- IC50 [6]: 83 nM

SMILES: CC1=C[C@@H](C(N)=O)N2C[C@@H]1N(OCC(=O)O)C2=O [Example 93, 2-(((2S,5R)-2-carbamoyl-4-methyl-7-oxo-1,6-diazabicyclo[3.2.1]oct-3-en-6-yl)oxy)acetic acid lithium salt]
- MIC of cefixime in presence of BLI ([1]; BLI at fixed 4 μg/ml): ≤0.06 µg/mL
- MIC of faropenem in presence of BLI ([1]; BLI at fixed 4 μg/ml): ≤0.06 µg/mL
- MIC of tebipenem in presence of BLI ([1]; BLI at fixed 4 μg/ml): ≤0.06 µg/mL
- MIC of cefpodoxime in presence of BLI ([2]; lithium salt): 0.125 µg/mL
- MIC of cefixime in presence of BLI [2, 7]: 0.125 µg/mL
- MIC of faropenem in presence of BLI [2, 7]: 1 µg/mL
- MIC of tebipenem in presence of BLI [2, 7]: ≤0.06 µg/mL
- MIC of cefixime in presence of BLI (E. coli WT (ATCC 25922); BLI at fixed 4 μg/ml): ≤0.06 µg/mL
- MIC of faropenem in presence of BLI (E. coli WT (ATCC 25922); BLI at fixed 4 μg/ml): ≤0.06 µg/mL
- MIC of tebipenem in presence of BLI (E. coli WT (ATCC 25922); BLI at fixed 4 μg/ml): ≤0.06 µg/mL
- IC50 [5]: 53 nM
- IC50 [6]: 150 nM

SMILES: C[C@@H](O)[C@H]1C(=O)N2C(C(=O)O)=C([C@H]3CCCO3)S[C@H]12 [Faropenem, faropenem, reference compound]
- MIC [1]: 8 µg/mL
- MIC [2]: 8 µg/mL
- MIC (E. coli WT (ATCC 25922)): 0.5 µg/mL

SMILES: N[C@@H](C(=O)N[C@@H]1C(=O)N2C(C(=O)O)=C(Cl)CC[C@H]12)c1ccccc1 [Loracarbef, loracarbef, reference compound]
- MIC of beta-lactam alone [1]: >64 µg/mL
- MIC of beta-lactam alone [2]: 32 µg/mL
- MIC of beta-lactam alone (E. coli WT (ATCC 25922)): 2 µg/mL

SMILES: O=C(NC1CCNCC1)[C@@H]1CC[C@@H]2CN1C(=O)N2OS(=O)(=O)O [Relebactam, reference compound]
- AUC [4]: 0.29 µM·h

SMILES: C[C@@H](O)[C@H]1C(=O)N2C(C(=O)O)=C(SC3CN(C4=NCCS4)C3)[C@H](C)[C@H]12 [Tebipenem, tebipenem, reference compound]
- MIC [1]: 0.125 µg/mL
- MIC [2]: 0.125 µg/mL
- MIC (E. coli WT (ATCC 25922)): ≤ 0.06 µg/mL

SMILES: CC1(C)[C@H](NC(=O)/C(=N\OCC(=O)O)c2csc(N)n2)C(=O)N1OS(=O)(=O)O [Tigemonam, tigemonam, reference compound]
- MIC of beta-lactam alone [1]: 4 µg/mL
- MIC of beta-lactam alone [2]: 32 µg/mL
- MIC of beta-lactam alone (E. coli WT (ATCC 25922)): 1 µg/mL

SMILES: N#CC1CC[C@@H]2CN1C(=O)N2OS(=O)(=O)O (stereo partly shown) [WCK 4234, reference compound]
- AUC [4]: 0.45 µM·h
